The values below come from patent publication US5852008A, “Heteroatom substituted benzoyl derivatives that enhance synaptic response mediated by receptors” (The Regents of the University of California, priority 1995, dated 1998).

Structures are written as SMILES. Like-named read-outs stand apart in the source and are kept apart here.

One series deals with AMPA receptors. Nature of the series: Field EPSP in rat hippocampal slices (field CA1): amplitude and area of AMPA receptor-mediated synaptic responses. The format is cell-based, rat (Sprague-Dawley). As for the experimental part: The physiological effects of invention compounds can be tested in vitro with slices of rat hippocampus as follows. Excitatory responses (field EPSPs) are measured in hippocampal slices which are maintained in a recording chamber continuously perfused with artificial cerebrospinal fluid (ACSF).
To conduct these tests, the hippocampus was removed from anesthetized, 2 month old Sprague-Dawley rats and in vitro slices (400 micrometers thick) were prepared and maintained in an interface chamber at 35° C. using conventional techniques [see, for example, Dunwiddie and Lynch, J. Physiol. Vol. 276: 353-367 (1978)]. The chamber was constantly perfused at 0.5 ml/min with ACSF containing (in mM): NaCl 124, KCl 3, KH2 PO4 1.25, MgSO4 2.5, CaCl2 3.4, NaHCO3 26, glucose 10 and L-ascorbate 2. A bipolar nichrome stimulating electrode was positioned in the dendritic layer (stratum radiatum) of the hippocampal subfield CA1 close to the border of subfield CA3.
Current pulses (0.1 msec) through the stimulating electrode activate a population of the Schaffer-commissural (SC) fibers which arise from neurons in the subdivision CA3 and terminate in synapses on the dendrites of CA1 neurons. Activation of these synapses causes them to release the transmitter glutamate. Glutamate binds to the postsynaptic AMPA receptors which then transiently open an associated ion channel and permit a sodium current to enter the postsynaptic cell. This current results in a voltage in the extracellular space (the field excitatory postsynaptic potential or field "EPSP") which is recorded by a high impedance recording electrode positioned in the middle of the stratum radiatum of CA1.
For the experiments summarized in FIG. 1, the intensity of the stimulation current was adjusted to produce half-maximal EPSPs (typically about 1.5-2.0 mV). Paired stimulation pulses were given every 40 sec with an interpulse interval of 200 msec (see below). The field EPSPs of the second response were digitized and analyzed to determine amplitude, half-width, and response area. If the responses were stable for 15-30 minutes (baseline), test compounds were added to the perfusion lines for a period of about 15 minutes. The perfusion was then changed back to regular ACSF.
Paired-pulse stimulation was used since stimulation of the SC fibers, in part, activates interneurons which generate an inhibitory postsynaptic potential (IPSP) in the pyramidal cells of CA1. This feed forward IPSP typically sets in after the EPSP reaches its peak. It accelerates the repolarization and shortens the decay phase of the EPSP, and thus could partially mask the effects of the test compounds. One of the relevant features of the feed-forward IPSP is that it can not be reactivated for several hundred milliseconds following a stimulation pulse. This phenomenon can be employed to advantage to eliminate IPSP by delivering paired pulses separated by 200 milliseconds and using the second ("primed") response for data analysis.
These effects are mirrored in the field EPSP, as reported in the literature [see, for example, Staubli et al., Psychobiology supra; Xiao et al., Hippocampus supra; Staubli et al., Hippocampus Vol. 2: 49-58 (1992)].
The variables set forth in the table refer to the following generic structure: [drawing 33]

A further series relates to AMPA receptor. The note with it: cited from earlier work.
Series [1] is described as follows: PET biodistribution of 11C-labelled Invention Compound II after i.p. injection. The source says:
To test the ability of invention compounds to pass the blood-brain barrier, Invention Compound II was labelled with carbon-11.
Radiolabelled Invention Compound II (see the table above) is synthesized by the following scheme (wherein the numbers in parenthesis refer to the quantity of reagent used, in millimoles): [drawing 34] wherein Ar is aryl (such as methylenedioxybenzene), Im is imidazole (thus, ImHCl is imidazole hydrochloride), and R is an alkyl or alkylene radical (so that R2 NH is, for example, piperidine). ^11 C-labelled CO2 is produced by cyclotron irradiation and subsequently used in the above-described synthetic scheme. The time to complete the synthesis is about […] ([…] the half-life of carbon-11). After purification of [^11 C]II on C18 Sep Pak, 260 μCi was diluted with 20 mg of nonradioactive II as carrier in a 1-ml solution of 23% propylene glycol and 10% ethanol in physiologically-buffered saline in order to simulate the dosage of 100 mg/Kg that was used in behavioral studies. The final 1 ml of solution was administered to a 200 g rat under halothane anesthesia (1.4-1.7% in oxygen) by intraperitoneal (i.p.) injection.
Biodistribution of the radiotracer in the body of the rat was monitored by a positron camera (Scanditronix PC2048-15B) and the time-activity curves were constructed using a Vax 3500 (Digital Equipment Corporation) and shown in FIG. 5.

The mark [2] stands for this setting: percent increase in field EPSP amplitude; log dose/response; maximal response of 85% increase assumed where solubility was limiting; read-out: EC50 (field EPSP amplitude).
Setting [3] is: after i.p. injection, 100 mg/kg.
Where [4] appears, read: read-out: EC50 (field EPSP amplitude); percent increase in field EPSP amplitude; log dose/response; maximal response of 85% increase assumed where solubility was limiting.

One may read the EC50 as the midpoint of the concentration-response curve. `O=C(c1ccc2c(c1)OCO2)N1CCCC1` [Invention Compound VI, 1(1,3-Benzodioxol-5-ylcarbonyl)-pyrrolidine]: in the series on AMPA receptors (setting [2]), the EC50 stood at 1200 µM.

For `COc1ccc(C(=O)N2CC[C@@H](O)C2=O)cc1` [(R)-1-p-anisoyl-3-hydroxy-2-pyrrolidinone], the “facilitation of AMPA receptor mediated responses” value with AMPA receptor (nootropics tested in slices) was “facilitate AMPA receptor mediated responses”.

As for `O=C(c1ccc2nccnc2c1)N1CCCCC1` [Invention Compound XIV, 1-(quinoxalin-6-ylcarbonyl)-piperidine], the EC50 in the series on AMPA receptors (setting [2]) turned out to be 300 µM.

Regarding `O=C(c1ccc2c(c1)OCCO2)N1CC=CC1` [Invention Compound VIII], the EC50 in the series on AMPA receptors (setting [2]) was found to be 3000 µM.

As for `O=C(c1ccc2c(c1)OCO2)N1CCCCCC1` [Invention Compound VII, 1-(1,3-benzodioxol-5-ylcarbonyl)-hexamethyleneimine], the EC50 in the series on AMPA receptors (setting [2]) stood at 4000 µM.

For `O=C(c1ccc2[nH]cnc2c1)N1CC=CCC1` [Invention Compound XII], the EC50 in the series on AMPA receptors (setting [2]) amounted to 5000 µM.

Consider `O=C(c1ccc2c(c1)OCO2)N1CC=CCC1` [Invention Compound III, 1-(1,3-benzodioxol-5-ylcarbonyl)-1,2,3,6-tetrahydropyridine], for which, in the series with AMPA receptors (setting [2]), the EC50 is 800 µM.

On to `CC1Oc2ccc(C(=O)N3CCCCC3)cc2O1` (racemic) [Invention Compound V, (R,S)-1-(2-methyl-1,3-benzodioxol-5-ylcarbonyl)-piperidine], for which, in the series with AMPA receptors (setting [2]), the EC50 was found to be 1100 µM.

Take `CN(C)c1ccc(C(=O)N2CC=CCC2)cc1` [Invention Compound XV, N-(4-dimethylamino)benzoyl-1,2,3,6-tetrahydropyridine]: the EC50 in the series with AMPA receptors (setting [2]) worked out at 1700 µM.

For the compound `O=C(c1ccc2c(c1)OCO2)N1CCCCC1` [Invention Compound II, 1-(1,3-benzodioxol-5-ylcarbonyl)-piperidine], in the series on AMPA receptors (setting [2]), the EC50 was 1500 µM. In addition, in series [1] (setting [3]), the “time of peak uptake in brain” value is listed as “about 5 minutes”, the “time of peak uptake in heart” value is given as “about 5 minutes”, the “time of peak uptake in liver” value was “about 3 minutes” and the “time of peak uptake in soft tissues” value was “about 17 minutes”. Further, in series [1] (i.p.), the “passage through the blood-brain barrier” value is on record as “passes freely through the blood-brain barrier”. Also, in series [1] (rat, in vivo, ip), the “brain distribution relative to head excluding the cranial cavity” value is “approximately equal to that of the head excluding the cranial cavity”; the “decline of levels in liver after peak” value was “declined markedly for the first 5 minutes after peaking and then more gradually”; the “decline of levels in the other three tissues (heart, brain, soft tissue) after peak” value is recorded as “declined very gradually after peaking”; the “entry into and residence in brain (target tissue)” value is “relatively rapid and stayed in the brain for an extended period”. Besides, in series [1] (rat, in vivo, ip), the “order of tissue uptake” value is recorded as “liver showed the maximum uptake, followed by heart”.

As to `COc1ccc(C(=O)NCCCC(=O)O)cc1` [anisoyl-GABA], in the series with AMPA receptor (metabolite of aniracetam), the aniracetam-like effects entry is “no aniracetam-like effects”.

In the case of `O=C1CCCN1C(=O)c1ccc2c(c1)OCO2` [Invention Compound XVI], in the series on AMPA receptors (setting [4]), the EC50 turned out to be 2000 µM.

In the case of `O=C(c1ccc2ncoc2c1)N1CC=CCC1` [Invention Compound XI], the EC50 in the series with AMPA receptors (setting [2]) worked out at 3000 µM.

As to `O=C(c1ccc2nccnc2c1)N1CC=CCC1` [Invention Compound XIII, 1-(quinoxalin-6-ylcarbonyl)-1,2,3,6-tetrahydropyridine], the EC50 in the series with AMPA receptors (setting [2]) was 50 µM.

`O=C1CCCC1C(=O)c1ccc2c(c1)OCO2` (centres unmarked) [Invention Compound IV]: the EC50 with AMPA receptors (setting [4]) came to 900 µM.

`O=C(c1ccc2ocnc2c1)N1CC=CCC1` [Invention Compound IX]: the half-maximal effective concentration (EC50) with AMPA receptors (setting [2]) was found to be 4000 µM.
